Common to all, as to test: relative viability (nuclei count vs DMSO), 5 days (fraction); higher = more cells survive
Compound in experiment [1]: Cn1cncc1[C@@](N)(c1ccc(Cl)cc1)c1ccc2c(c1)c(-c1cccc(Cl)c1)cc(=O)n2C [Tipifarnib] + Cc1nc(Nc2ncc(C(=O)Nc3c(C)cccc3Cl)s2)cc(N2CCN(CCO)CC2)n1 [Dasatinib] (partner 0.075 µM)
The gist of the method: (§1)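 After 5 days of treatment, lung cancer cells in 1536-well plates were fixed and stained in a single step (final 0.05% Triton X-100, 1% formaldehyde, 1 ug/ml Hoechst) and their nuclei counted on 4× images. Treatment had been applied by pin tool the day after seeding as one drug alone or as a fixed anchor-drug dose with five library-drug doses (not always all listed) in √10 steps. Relative viability is the nuclei count of treated wells divided by that of vehicle wells, and values are medians of duplicate plates.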

Compound in experiment [2]: Cn1cncc1[C@@](N)(c1ccc(Cl)cc1)c1ccc2c(c1)c(-c1cccc(Cl)c1)cc(=O)n2C [Tipifarnib] + O=C(CCCCCCC(=O)Nc1ccccc1)NO [Vorinostat] (partner 1 µM)
The essentials:
as §1

Compound in experiment [3]: Cn1cncc1[C@@](N)(c1ccc(Cl)cc1)c1ccc2c(c1)c(-c1cccc(Cl)c1)cc(=O)n2C [Tipifarnib] + C[C@@H](Oc1cc(-c2cnn(C3CCNCC3)c2)cnc1N)c1c(Cl)ccc(F)c1Cl [Crizotinib] (partner 1 µM)
The essentials: as §1

Compound in experiment [4]: Cn1cncc1[C@@](N)(c1ccc(Cl)cc1)c1ccc2c(c1)c(-c1cccc(Cl)c1)cc(=O)n2C [Tipifarnib] + CC1(C)CCC(c2ccc(Cl)cc2)=C(CN2CCN(c3ccc(C(=O)NS(=O)(=O)c4ccc(N[C@H](CCN5CCOCC5)CSc5ccccc5)c(S(=O)(=O)C(F)(F)F)c4)cc3)CC2)C1 [Navitoclax] (partner 0.5 µM)
The gist of the method:
as §1

For NCI-H2023, the relative viability amounted to 0.561 in experiment [1] (first compound 0.01 µM); 0.427 in experiment [1] (first compound 0.03162 µM); 0.325 in experiment [1] (first compound 0.1 µM); 0.299 in experiment [1] (first compound 0.3162 µM); 0.217 in experiment [1] (first compound 1 µM); 0.598 in experiment [2] (first compound 0.01 µM). In addition, the relative viability in experiment [2] (first compound 0.03162 µM) is 0.366; in experiment [2] (first compound 0.1 µM) it was 0.289; in experiment [2] (first compound 0.3162 µM) it was 0.186; in experiment [2] (first compound 1 µM) it was 0.137; in experiment [3] (first compound 0.01 µM), 0.491; in experiment [3] (first compound 0.03162 µM), 0.495. For the same cell line, the relative viability in experiment [3] (first compound 0.1 µM) was 0.302; in experiment [3] (first compound 0.3162 µM), 0.27; in experiment [3] (first compound 1 µM), 0.333; in experiment [4] (first compound 0.01 µM) it was 1.01; in experiment [4] (first compound 0.03162 µM), 0.773; in experiment [4] (first compound 0.1 µM), 0.68. For the same cell line, the relative viability is 0.457 in experiment [4] (first compound 0.3162 µM) and 0.47 in experiment [4] (first compound 1 µM).
As for COR-L 105, the relative viability in experiment [1] (first compound 0.01 µM) turned out to be 0.32; in experiment [1] (first compound 0.03162 µM), 0.355; in experiment [1] (first compound 0.1 µM), 0.341; in experiment [1] (first compound 0.3162 µM) it was 0.327; in experiment [1] (first compound 1 µM), 0.255; in experiment [2] (first compound 0.01 µM), 0.982. In addition, the relative viability in experiment [2] (first compound 0.03162 µM) stood at 0.75; in experiment [2] (first compound 0.1 µM), 0.605; in experiment [2] (first compound 0.3162 µM), 0.504; in experiment [2] (first compound 1 µM), 0.478; in experiment [3] (first compound 0.01 µM), 0.538; in experiment [3] (first compound 0.03162 µM) it was 0.392. Moreover, the relative viability in experiment [3] (first compound 0.1 µM) stood at 0.383; in experiment [3] (first compound 0.3162 µM), 0.407; in experiment [3] (first compound 1 µM), 0.317; in experiment [4] (first compound 0.01 µM), 0.874; in experiment [4] (first compound 0.03162 µM), 0.578; in experiment [4] (first compound 0.1 µM) it was 0.739. The relative viability in experiment [4] (first compound 0.3162 µM) came out at 0.576; in experiment [4] (first compound 1 µM), 0.559.
On to NCI-H1734, for which the relative viability in experiment [1] (first compound 0.01 µM) turned out to be 0.465; in experiment [1] (first compound 0.03162 µM), 0.389; in experiment [1] (first compound 0.1 µM), 0.347; in experiment [1] (first compound 0.3162 µM), 0.274; in experiment [1] (first compound 1 µM), 0.22; in experiment [2] (first compound 0.01 µM), 0.791. The relative viability in experiment [2] (first compound 0.03162 µM) was 0.553; in experiment [2] (first compound 0.1 µM), 0.534; in experiment [2] (first compound 0.3162 µM), 0.368; in experiment [2] (first compound 1 µM), 0.364; in experiment [3] (first compound 0.01 µM) it was 0.802; in experiment [3] (first compound 0.03162 µM) it was 0.589. In addition, the relative viability came to 0.425 in experiment [3] (first compound 0.1 µM); 0.444 in experiment [3] (first compound 0.3162 µM); 0.352 in experiment [3] (first compound 1 µM); 0.882 in experiment [4] (first compound 0.01 µM); 0.718 in experiment [4] (first compound 0.03162 µM); 0.635 in experiment [4] (first compound 0.1 µM). The relative viability in experiment [4] (first compound 0.3162 µM) was 0.464; in experiment [4] (first compound 1 µM) it was 0.431.
With NCI-H3122, the relative viability in experiment [1] (first compound 0.01 µM) was 0.63; in experiment [1] (first compound 0.03162 µM) it was 0.456; in experiment [1] (first compound 0.1 µM), 0.644; in experiment [1] (first compound 0.3162 µM), 0.327; in experiment [1] (first compound 1 µM), 0.138; in experiment [2] (first compound 0.01 µM), 1.12. The relative viability in experiment [2] (first compound 0.03162 µM) stood at 0.962; in experiment [2] (first compound 0.1 µM) it was 0.709; in experiment [2] (first compound 0.3162 µM), 0.538; in experiment [2] (first compound 1 µM), 0.219; in experiment [3] (first compound 0.01 µM) it was 0.281; in experiment [3] (first compound 0.03162 µM), 0.217. Moreover, the relative viability in experiment [3] (first compound 0.1 µM) is 0.249; in experiment [3] (first compound 0.3162 µM), 0.256; in experiment [3] (first compound 1 µM) it was 0.254; in experiment [4] (first compound 0.01 µM) it was 1.02; in experiment [4] (first compound 0.03162 µM), 0.95; in experiment [4] (first compound 0.1 µM), 0.857. Further, the figures for the relative viability in experiment [4] (first compound 0.3162 µM) and in experiment [4] (first compound 1 µM) were 0.675 and 0.782, respectively.
For CAL-12T, the relative viability in experiment [1] (first compound 0.01 µM) was 0.256; in experiment [1] (first compound 0.03162 µM), 0.287; in experiment [1] (first compound 0.1 µM), 0.519; in experiment [1] (first compound 0.3162 µM) it was 0.198; in experiment [1] (first compound 1 µM) it was 0.18; in experiment [2] (first compound 0.01 µM), 0.701. Besides, the relative viability in experiment [2] (first compound 0.03162 µM) is 0.519; in experiment [2] (first compound 0.1 µM) it was 0.454; in experiment [2] (first compound 0.3162 µM), 0.324; in experiment [2] (first compound 1 µM), 0.29; in experiment [3] (first compound 0.01 µM), 0.567; in experiment [3] (first compound 0.03162 µM), 0.387. In addition, the relative viability was 0.334 in experiment [3] (first compound 0.1 µM); 0.173 in experiment [3] (first compound 0.3162 µM); 0.228 in experiment [3] (first compound 1 µM); 1.21 in experiment [4] (first compound 0.01 µM); 1.1 in experiment [4] (first compound 0.03162 µM); 0.768 in experiment [4] (first compound 0.1 µM). Further, the relative viability in experiment [4] (first compound 0.3162 µM) came out at 0.526; in experiment [4] (first compound 1 µM), 0.716.
Consider HCC-78, for which the relative viability is 0.327 in experiment [1] (first compound 0.01 µM); 0.428 in experiment [1] (first compound 0.03162 µM); 0.273 in experiment [1] (first compound 0.1 µM); 0.371 in experiment [1] (first compound 0.3162 µM); 0.266 in experiment [1] (first compound 1 µM); 0.503 in experiment [2] (first compound 0.01 µM). Besides, the relative viability in experiment [2] (first compound 0.03162 µM) came out at 0.451; in experiment [2] (first compound 0.1 µM), 0.392; in experiment [2] (first compound 0.3162 µM) it was 0.385; in experiment [2] (first compound 1 µM) it was 0.366; in experiment [3] (first compound 0.01 µM), 0.321; in experiment [3] (first compound 0.03162 µM) it was 0.357. The relative viability turned out to be 0.303 in experiment [3] (first compound 0.1 µM); 0.29 in experiment [3] (first compound 0.3162 µM); 0.266 in experiment [3] (first compound 1 µM); 0.752 in experiment [4] (first compound 0.01 µM); 0.896 in experiment [4] (first compound 0.03162 µM); 0.743 in experiment [4] (first compound 0.1 µM). Besides, the relative viability in experiment [4] (first compound 0.3162 µM) stood at 0.59; in experiment [4] (first compound 1 µM), 0.302.
For the cell line NCI-H2085, the relative viability in experiment [1] (first compound 0.01 µM) was 0.296; in experiment [1] (first compound 0.03162 µM), 0.264; in experiment [1] (first compound 0.1 µM) it was 0.262; in experiment [1] (first compound 0.3162 µM) it was 0.25; in experiment [1] (first compound 1 µM), 0.288; in experiment [2] (first compound 0.01 µM), 0.767. For the same cell line, the relative viability in experiment [2] (first compound 0.03162 µM) came to 0.575; in experiment [2] (first compound 0.1 µM), 0.62; in experiment [2] (first compound 0.3162 µM), 0.53; in experiment [2] (first compound 1 µM), 0.445; in experiment [3] (first compound 0.01 µM), 0.685; in experiment [3] (first compound 0.03162 µM), 0.446. Further, the relative viability in experiment [3] (first compound 0.1 µM) stood at 0.433; in experiment [3] (first compound 0.3162 µM) it was 0.414; in experiment [3] (first compound 1 µM), 0.469; in experiment [4] (first compound 0.01 µM), 0.862; in experiment [4] (first compound 0.03162 µM), 0.788; in experiment [4] (first compound 0.1 µM) it was 0.546. For the same cell line, the relative viability was 0.611 in experiment [4] (first compound 0.3162 µM) and 0.514 in experiment [4] (first compound 1 µM).

(Values after the supplement of paper PMC10307832.)
